Results reported in US7858322B2, “Method of determining inhibition of binding to TRPM7 protein” (NoNo, Inc., priority 2003, dated 2010).
Residues, ends and D or L forms follow the SMILES beside them. No end group written: not given here. *: point of attachment. Biotin = O=C1N[C@H]2[C@H](CS[C@H]2CCCCC(=O)*)N1

Legend:
ZO-1 d2 [1] = target: T1, ZO-1 d2 (Homo sapiens, UniProt Q07157, DEL264-264); assay: G3 assay, binding of biotinylated peptide to GST-PDZ fusion; conditions: G3 titration
T1 construct: made in house; host or cells: E. coli (DH5α, BL21 or JM109)
T1 sequence (Q07157 with tags, fused parts or gaps DEL264-264): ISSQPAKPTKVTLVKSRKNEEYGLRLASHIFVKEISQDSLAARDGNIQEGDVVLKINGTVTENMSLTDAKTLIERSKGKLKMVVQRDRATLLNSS
Description: (§1) The G3 assay is identical to the G0 assay with the following exceptions. The peptides are typically present at 0.1 μM rather than 20 μM. The peptides are also pre-incubated with the HRP-streptavidin prior to adding to the assay plate. In the G0 assay, free peptide is incubated with the PDZ proteins prior to the addition of the HRP-streptavidin. Thus, for the G0 assay one can lose signal if the bound peptide dissociates from the PDZ protein prior to the addition of the HRP-streptavidin. In the G3 modified assay the HRP-streptavidin/peptide complex is added to the plate in one step, thus increasing the likelihood that all the bound peptide will be bound to HRP-streptavidin. The G3 modified assay increases the chance of observing weak interaactions.
(§2) Reagents and Supplies • Nunc MaxiSorp 96 well Immuno-plate, Nunc • PBS pH 7.4 (phosphate buffered saline, 8 g NaCl, 0.29 g KCl, 1.44 g Na2HPO4, 0.24 g KH2PO4, add H2O to 1 liter and pH 7.4; 0.2 μm filter) • Assay Buffer: 2% BSA in PBS (20 g of bovine serum albumin per liter PBS, fraction V, ICN Biomedicals, cat#IC15142983 • Goat anti-GST polyclonal Ab, stock 5 mg/ml, stored at 4° C., Amersham Pharmacia cat#27-4577-01 • Dilute 1:1000 in PBS, final concentration 5 μg/ml. • HRP-Streptavidin, 2.5 mg/2 ml stock stored at 4° C., Zymed cat#43-4323, dilute 1:2000 into Assay buffer, final concentration of 0.5 μg/ml • Wash Buffer, PBS • Biotinylated peptides (HPLC purified, stock solution stored in −20° C. freezer) • GST-PRISM proteins (stock stored at −80° C., after 1st thaw store in −10° C. freezer) • TMB (3,3′,5,5′, teramethylbensidine), tablets, Sigma cat.#T5525 • Per plate, dissolve 1 tablet in 1 ml DMSO, add 9 ml Citrate/Phosphate buffer pH 5.4 and 2 μL H2O2 • 0.18M H2SO4, Sigma cat.#S 1526 • 12-w multichannel pipettor & tips • 50 ml reagent reservoirs, Costar#4870 • 50, 15 ml polypropylene conical tubes • Costar Transtar 96 Costar #7605 • Transtar 96 Cartridge Costar #7610 • Molecular Devices microplate reader (450 & 650 nm filters) with SoftMax Pro software • When using reagents stored at or 4° C. or −20° C., remove & keep on ice
(§3) Protocol • 1. Coat plate with 100 μl of 5 μg/ml anti-GST, overnight at 4° C. • 2. Dump contents of plate & out tap dry on paper towels • 3. Block with 200 μl Assay Buffer for 2 hrs at room temperature • 4. Prepare proteins at 5 μg/ml in Assay Buffer • 5. Wash 3× with cold PBS (4° C.), avoiding letting the plates dry out • 6. Add proteins at 50 μl per well, incubate 1 to 2 hrs at 4° C. • 7. Prepare peptides to desired concentration in Assay Buffer • 8. Wash 3× with cold PBS (4° C.), avoiding letting the plates dry out • 9. Add HRP-Streptavidin/peptide complex [prepared by incubating for 20 minutes at room temperature HRP-Streptavidin (1:2000) with the desired biotin-peptide concentration for 20 minutes at room temperature] at 50 μl per well on ice • 10. Place at room temperature for exactly 30 minutes • 11. Promptly wash 5× with PBS at room temperature • 12. Add 100 μl/well TMB substrate (write time on plate) • 13. Incubate in dark at room temperature for a maximum of 30 minutes • 14. Read plate at 25 minutes (650 nm), optional • 15. Stop reaction with 100 μl of 0.18 M H2SO4, 30 minutes after adding TMB Take last reading at 450 nm soon after stopping reaction
(§4) The G3 assay was performed using 0.1 μM peptide representing 11 amino acids of Tat fused to the final 9 amino acids of TRPM7 ([…]; SEQ ID NO:258).
(§5) The G3 assay was performed on a subset of the PDZ domains as in Example II except that the concentration of peptide was 0.002 μM, […], 0.1 μM, 0.2 μM, 1 μM, and 2 μM.
(§6) to calculate the EC50 for the binding of the peptides to the PDZ domains.
(§7) FIGS. 10A and 10B show graphs of the titrations for the Peptide #1829 with ZO-1 d2 and for the Peptide #1839 with INADL d3.

INADL d3 [2] = target: T2, INADL d3 (Homo sapiens, UniProt Q8NI35); assay: as above; conditions: G3 titration
T2 construct: made in house; host or cells: E. coli (DH5α, BL21 or JM109)
T2 sequence (Q8NI35 with tags, fused parts or gaps): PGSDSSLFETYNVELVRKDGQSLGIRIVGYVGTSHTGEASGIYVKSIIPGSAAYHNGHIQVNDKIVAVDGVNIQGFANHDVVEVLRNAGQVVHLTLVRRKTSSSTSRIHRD
Description: as §1, §2, §3, §4, §5, §6, §7

RIM2 d1 = target: T3, RIM2 d1 (Homo sapiens, UniProt Q9UQ26); assay: G assays, titrations or binding assays of peptides; conditions: peptide demonstrated to bind RIM2 d1 in G assays
T3 construct: made in house; host or cells: E. coli (DH5α, BL21 or JM109)
T3 sequence (Q9UQ26 632-757): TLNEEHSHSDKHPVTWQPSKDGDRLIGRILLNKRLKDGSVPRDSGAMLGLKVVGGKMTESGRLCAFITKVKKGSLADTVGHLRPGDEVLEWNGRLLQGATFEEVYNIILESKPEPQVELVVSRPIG
Description: (§8) In one aspect, the invention provides an assay in which a GST/PDZ fusion protein is immobilized on a surface (G assay). […] In a preferred embodiment, the assay is carried out as follows:
(§9) (1) A PDZ-domain polypeptide is bound to a surface, e.g. a protein binding surface. In a preferred embodiment, a GST/PDZ fusion protein containing one or more PDZ domains is bound to a polystyrene 96-well plate. […] In one embodiment, the GST/PDZ fusion protein is bound via an anti-GST antibody that is coated onto the 96-well plate. Adequate binding to the plate can be achieved when: • a. 100 μl per well of 5 μg/ml goat anti-GST polyclonal antibody (Pierce) in PBS is added to a polystyrene 96-well plate (e.g., Nunc Polysorp) at 4° C. for 12 hours. • b. The plate is blocked by addition of 200 μl per well of PBS/BSA for 2 hours at 4° C. • c. The plate is washed 3 times with PBS. • d. 50 μl per well of 5 μg/ml GST/PDZ fusion protein) or, as a negative control, GST polypeptide alone (i.e. not a fusion protein) in PBS/BSA is added to the plate for 2 hours at 4° C. • e. the plate is again washed 3 times with PBS.
(§10) (2) Biotinylated PL peptides are allowed to react with the surface by addition of 50 μl per well of 20 μM solution of the biotinylated peptide in PBS/BSA for 10 minutes at 4° C., followed by an additional 20 minute incubation at 25° C. The plate is washed 3 times with ice cold PBS.
(§11) (3) The binding of the biotinylated peptide to the GST/PDZ fusion protein surface can be detected using a variety of methods and detectors known to one of skill in the art. In one embodiment, 100 μl per well of 0.5 μg/ml streptavidin-horseradish peroxidase (HRP) conjugate dissolved in BSA/PBS is added and allowed to react for 20 minutes at 4° C. The plate is then washed 5 times with 50 mM Tris pH 8.0 containing 0.2% Tween 20, and developed by addition of 100 μl per well of HRP-substrate solution (TMB, Dako) for 20 minutes at room temperature (RT). The reaction of the HRP and its substrate is terminated by addition of 100 μl per well of 1 M sulfuric acid, and the optical density (O.D.) of each well of the plate is read at 450 um.
(§12) (4) Specific binding of a PL peptide and a PDZ domain polypeptide is determined by comparing the signal from the well(s) in which the PL peptide and PDZ domain polypeptide are combined, with the background signal(s). […] Typically a specific or selective reaction will be at least twice background signal, more typically more than 5 times background, and most typically 10 or more times the background signal. […] Correspondingly, a statistical test (e.g. a T-test) comparing repeated measurements of the signal with repeated measurements of the background will result in a p-value <0.05, more typically a p-value <0.01, and most typically a p-value <0.001 or less. As noted, in an embodiment of the G assay, the signal from binding of a given PL peptide to immobilized (surface bound) GST polypeptide alone is one suitable negative control (sometimes referred to as B1). Because all measurement are done in multiples (i.e. at least duplicate) the arithmetic mean (or, equivalently, average.) of several measurements is used in determining the binding, and the standard error of the mean is used in determining the probable error in the measurement of the binding. The standard error of the mean of N measurements equals the square root of the following: the sum of the squares of the difference between each measurement and the mean, divided by the product of (N) and (N−1). Thus, in one embodiment, specific binding of the PDZ protein to the platebound peptide is determined by comparing the mean signal (“mean S”) and standard error of the signal (“SE”) for a particular PL-PDZ combination with the mean B1.

ZO-1 d2 [3] = target: T1, ZO-1 d2; assay: G assays, titrations or binding assays of peptides; conditions: peptide demonstrated to bind ZO-1 d2 in G assays
INADL d3 [4] = target: T2, INADL d3; assay: G assays, titrations or binding assays of peptides; conditions: peptide demonstrated to bind INADL d3 in G assays
Description: as §8, §9, §10, §11, §12

[5] = system: cultured cortical neurons; assay: Oxygen glucose deprivation (OGD) neuronal cell death; assay type: cell-based; conditions: FIG. 7
Description: The fraction of dead cells was determining by dividing the number of neurons expressing GFP which became stained with propidium iodide 20 h after OGD by the number of neurons expressing GFP at the beginning of the experiment. Data for each culture was obtained from counting cells in 3 high power microscope fields per experiment.

Compound | ODmax (450 nm) (ZO-1 d2 [1]) | ODmax (450 nm) (INADL d3 [2]) | POZ domain bound (RIM2 d1) | POZ domain bound (ZO-1 d2 [3]) | POZ domain bound (INADL d3 [4]) | Survival of neurons in prolonged OGD [5]
CC[C@H](C)[C@H](NC(=O)[C@H](CC(C)C)NC(=O)[C@H](CCCNC(=N)N)NC(=O)[C@H](CCCNC(=N)N)NC(=O)[C@H](CCC(=O)O)NC(=O)[C@H](CC(=O)O)NC(=O)[C@H](CCC(N)=O)NC(=O)[C@H](CCCNC(=N)N)NC(=O)[C@H](CCCNC(=N)N)NC(=O)[C@H](CCCNC(=N)N)NC(=O)[C@H](CCC(N)=O)NC(=O)[C@H](CCCNC(=N)N)NC(=O)[C@H](CCCNC(=N)N)NC(=O)[C@H](CCCCN)NC(=O)[C@H](CCCCN)NC(=O)[C@H](CCCNC(=N)N)NC(=O)CNC(=O)[C@H](Cc1ccc(O)cc1)NC(=O)CCCC[C@@H]1SC[C@@H]2NC(=O)N[C@@H]21)C(=O)N[C@H](C(=O)N[C@@H](CC(C)C)C(=O)O)C(C)C [Peptide 1842] (Biotin-YGRKKRRQRRRQDERRLIVL-OH) | 2.30 | 1.90 | RIM2 D1 | ZO-1 D2 |  | 
CC(C)C[C@H](NC(=O)[C@H](CO)NC(=O)[C@@H](NC(=O)[C@H](CC(C)C)NC(=O)[C@H](CCCNC(=N)N)NC(=O)[C@H](CC(=O)O)NC(=O)CNC(=O)[C@H](CCCNC(=N)N)NC(=O)[C@H](C)NC(=O)[C@H](CCCNC(=N)N)NC(=O)[C@H](CCCNC(=N)N)NC(=O)[C@H](CCCNC(=N)N)NC(=O)[C@H](CCC(N)=O)NC(=O)[C@H](CCCNC(=N)N)NC(=O)[C@H](CCCNC(=N)N)NC(=O)[C@H](CCCCN)NC(=O)[C@H](CCCCN)NC(=O)[C@H](CCCNC(=N)N)NC(=O)CNC(=O)[C@H](Cc1ccc(O)cc1)NC(=O)CCCC[C@@H]1SC[C@@H]2NC(=O)N[C@@H]21)C(C)C)C(=O)O [Peptide 1843] (Biotin-YGRKKRRQRRRARGDRLVSL-OH; C-terminus assumed) | 2.20 | 1.20 | RIM2 D1 | ZO-1 D2 |  | 
CC(C)[C@H](NC(=O)[C@H](Cc1ccc(O)cc1)NC(=O)[C@H](Cc1ccc(O)cc1)NC(=O)[C@H](CCC(=O)O)NC(=O)[C@H](CCCCN)NC(=O)[C@H](CC(=O)O)NC(=O)[C@H](CCCCN)NC(=O)[C@H](CC(N)=O)NC(=O)[C@H](CCCCN)NC(=O)[C@H](CCCNC(=N)N)NC(=O)[C@H](CCCNC(=N)N)NC(=O)[C@H](CCCNC(=N)N)NC(=O)[C@H](CCC(N)=O)NC(=O)[C@H](CCCNC(=N)N)NC(=O)[C@H](CCCNC(=N)N)NC(=O)[C@H](CCCCN)NC(=O)[C@H](CCCCN)NC(=O)[C@H](CCCNC(=N)N)NC(=O)CNC(=O)[C@H](Cc1ccc(O)cc1)NC(=O)CCCC[C@@H]1SC[C@@H]2NC(=O)N[C@@H]21)C(=O)O [Peptide 1852] (Biotin-YGRKKRRQRRRKNKDKEYYV-OH; C-terminus assumed) | 2.60 | 2.40 | RIM2 D1 | ZO-1 D2 |  | 
CC[C@H](C)[C@H](NC(=O)[C@@H](NC(=O)[C@H](CCCNC(=N)N)NC(=O)[C@H](CC(=O)O)NC(=O)[C@H](CO)NC(=O)[C@H](CCCNC(=N)N)NC(=O)[C@H](C)NC(=O)[C@H](CCCNC(=N)N)NC(=O)[C@H](CCCNC(=N)N)NC(=O)[C@H](CCCNC(=N)N)NC(=O)[C@H](CCC(N)=O)NC(=O)[C@H](CCCNC(=N)N)NC(=O)[C@H](CCCNC(=N)N)NC(=O)[C@H](CCCCN)NC(=O)[C@H](CCCCN)NC(=O)[C@H](CCCNC(=N)N)NC(=O)CNC(=O)[C@H](Cc1ccc(O)cc1)NC(=O)CCCC[C@@H]1SC[C@@H]2NC(=O)N[C@@H]21)[C@@H](C)O)C(=O)N[C@@H](Cc1c[nH]c2ccccc12)C(=O)N[C@@H](C)C(=O)O [Peptide 1829] (Biotin-YGRKKRRQRRRARSDRTIWA-OH; C-terminus assumed) | 2.90 | 1.40 | RIM2 D1 | ZO-1 D2 | INADL D3 | 
Biotin-YGRKKRRQRRRSRTDRLEYV [Peptide 1846] |  | 1.50 | RIM2 D1 |  |  | 
[Gd+3] [Gd^3+] |  |  |  |  |  | can permit survival of neurons destined to die from prolonged OGD
CC[C@H](C)[C@H](NC(=O)[C@H](CCC(N)=O)NC(=O)[C@H](Cc1ccc(O)cc1)NC(=O)[C@H](CCCCN)NC(=O)[C@H](CCCNC(=N)N)NC(=O)[C@H](CC(=O)O)NC(=O)[C@@H](NC(=O)[C@H](CCCNC(=N)N)NC(=O)[C@H](CO)NC(=O)[C@H](CCCNC(=N)N)NC(=O)[C@H](CCCNC(=N)N)NC(=O)[C@H](CCCNC(=N)N)NC(=O)[C@H](CCC(N)=O)NC(=O)[C@H](CCCNC(=N)N)NC(=O)[C@H](CCCNC(=N)N)NC(=O)[C@H](CCCCN)NC(=O)[C@H](CCCCN)NC(=O)[C@H](CCCNC(=N)N)NC(=O)CNC(=O)[C@H](Cc1ccc(O)cc1)NC(=O)CCCC[C@@H]1SC[C@@H]2NC(=O)N[C@@H]21)[C@@H](C)O)C(=O)O [Peptide 1839] (Biotin-YGRKKRRQRRRSRTDRKYQI-OH; C-terminus assumed) | 2.50 | 1.60 | RIM2 D1 |  | INADL D3 | 
C[C@H](NC(=O)[C@H](Cc1c[nH]c2ccccc12)NC(=O)[C@H](Cc1ccc(O)cc1)NC(=O)[C@H](CCCCN)NC(=O)[C@H](CCCNC(=N)N)NC(=O)[C@H](CC(=O)O)NC(=O)[C@@H](NC(=O)[C@H](CCCNC(=N)N)NC(=O)[C@H](CO)NC(=O)[C@H](CCCNC(=N)N)NC(=O)[C@H](CCCNC(=N)N)NC(=O)[C@H](CCCNC(=N)N)NC(=O)[C@H](CCC(N)=O)NC(=O)[C@H](CCCNC(=N)N)NC(=O)[C@H](CCCNC(=N)N)NC(=O)[C@H](CCCCN)NC(=O)[C@H](CCCCN)NC(=O)[C@H](CCCNC(=N)N)NC(=O)CNC(=O)[C@H](Cc1ccc(O)cc1)NC(=O)CCCC[C@@H]1SC[C@@H]2NC(=O)N[C@@H]21)[C@@H](C)O)C(=O)O [Peptide 1832] (Biotin-YGRKKRRQRRRSRTDRKYWA-OH; C-terminus assumed) | 2.10 | 0.60 | RIM2 D1 | ZO-1 D2 | INADL D3 | 
